Measurements published in ChEMBL document CHEMBL1201862, “PubChem BioAssay data set” (2004).
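Exposure lasted 48 hours, with cells grown in 96-well plates and compounds tested at five concentrations. Here, GI50 denotes the concentration required for 50% inhibition of growth.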 Active and inactive are the calls of the source. Rule as the data show it: active = GI50 up to about 1.1 µM and inactive = higher.

Tests used:
Assay in all cases: DTP human tumour cell line panel, 48 h
MDA-N = system: MDA-N
A498 = system: A498
SW-620 = system: SW-620
M14 = system: M14
OVCAR-4 = system: OVCAR-4
SK-MEL-5 = system: SK-MEL-5
K562 = system: K562
NCI-H460 = system: NCI-H460
NCI/ADR-RES = system: NCI/ADR-RES
CCRF-CEM = system: CCRF-CEM
HT-29 = system: HT-29
OVCAR-5 = system: OVCAR-5
UO-31 = system: UO-31
COLO 205 = system: COLO 205
MDA-MB-231 = system: MDA-MB-231
TK-10 = system: TK-10
CAKI-1 = system: CAKI-1
SF-539 = system: SF-539

Measured: GI50

COC1CC(C)([N+](=O)[O-])C(O)C(C)O1 (stereo not drawn)
inactive: MDA-N > 100 µM | A498 > 100 µM | SW-620 > 100 µM | M14 > 100 µM | OVCAR-4 > 100 µM | SK-MEL-5 > 100 µM | K562 > 100 µM | NCI-H460 > 100 µM | NCI/ADR-RES > 100 µM | CCRF-CEM > 100 µM | HT-29 > 100 µM | OVCAR-5 > 100 µM | UO-31 > 100 µM | COLO 205 > 100 µM | MDA-MB-231 > 100 µM | TK-10 > 100 µM | CAKI-1 > 100 µM | SF-539 > 100 µM

CCCCCC1=CC(=O)C1(Cl)Cl
inactive: MDA-N 10.5 µM | A498 20.4 µM | SW-620 11.9 µM | M14 18.4 µM | OVCAR-4 15.9 µM | SK-MEL-5 9.48 µM | K562 4.68 µM | NCI-H460 19.6 µM | NCI/ADR-RES 17.9 µM | CCRF-CEM 2.23 µM | HT-29 14.6 µM | OVCAR-5 15.4 µM | UO-31 15.4 µM | COLO 205 12.2 µM | MDA-MB-231 9.93 µM | TK-10 5.81 µM | CAKI-1 8.3 µM | SF-539 12.4 µM

CCCC(CC)c1c(O)c(O)c(C(CC)CCC)c(C(CC)CCC)c1C(CC)CCC (stereo not drawn)
inactive: MDA-N > 10 µM | A498 > 10 µM | SW-620 > 10 µM | M14 > 10 µM | OVCAR-4 > 10 µM | SK-MEL-5 > 10 µM | K562 > 10 µM | NCI-H460 > 10 µM | NCI/ADR-RES > 10 µM | CCRF-CEM > 10 µM | HT-29 > 10 µM | OVCAR-5 > 10 µM | UO-31 > 10 µM | COLO 205 > 10 µM | MDA-MB-231 > 10 µM | TK-10 > 10 µM | CAKI-1 > 10 µM | SF-539 > 10 µM

O=c1c2cc(Cl)ccc2[nH]c2cc(O)cc(O)c12
inactive: MDA-N > 10 µM | A498 > 10 µM | SW-620 > 10 µM | M14 > 10 µM | OVCAR-4 > 10 µM | SK-MEL-5 > 10 µM | K562 > 10 µM | NCI-H460 > 10 µM | NCI/ADR-RES > 10 µM | CCRF-CEM > 10 µM | HT-29 > 10 µM | OVCAR-5 > 10 µM | COLO 205 > 10 µM | MDA-MB-231 > 10 µM | TK-10 > 10 µM | CAKI-1 > 10 µM | SF-539 > 10 µM

COc1cccc(/C=N/[N+](C)(C)C)c1O
inactive: MDA-N > 10 µM | A498 > 10 µM | SW-620 > 10 µM | M14 > 10 µM | OVCAR-4 > 10 µM | SK-MEL-5 > 10 µM | K562 > 10 µM | NCI-H460 > 10 µM | NCI/ADR-RES > 10 µM | CCRF-CEM > 10 µM | HT-29 > 10 µM | OVCAR-5 > 10 µM | UO-31 > 10 µM | COLO 205 > 10 µM | MDA-MB-231 > 10 µM | TK-10 > 10 µM | CAKI-1 > 10 µM | SF-539 > 10 µM

c1cc(-c2cscc2-c2ccsc2)cs1
inactive: MDA-N 40.2 µM | A498 > 100 µM | SW-620 57.9 µM | M14 31.3 µM | OVCAR-4 37.8 µM | SK-MEL-5 31 µM | K562 71.4 µM | NCI-H460 43.9 µM | NCI/ADR-RES 37.7 µM | CCRF-CEM 52.6 µM | HT-29 > 100 µM | OVCAR-5 53.2 µM | UO-31 72.9 µM | COLO 205 > 100 µM | MDA-MB-231 > 100 µM | TK-10 88.5 µM | CAKI-1 > 100 µM | SF-539 17.8 µM

CC(=O)O[C@@H]1C=C(C)[C@H](CBr)O[C@@]2(C)CC[C@H](Br)C(C)(C)[C@H]12
inactive: MDA-N > 100 µM | A498 > 100 µM | SW-620 > 100 µM | M14 > 100 µM | OVCAR-4 > 100 µM | SK-MEL-5 > 100 µM | K562 25.3 µM | NCI-H460 > 100 µM | NCI/ADR-RES 2.94 µM | CCRF-CEM 19.4 µM | HT-29 > 100 µM | OVCAR-5 > 100 µM | UO-31 > 100 µM | COLO 205 > 100 µM | MDA-MB-231 > 100 µM | TK-10 > 100 µM | CAKI-1 > 100 µM | SF-539 > 100 µM

CSC1=NC(C(N)=O)C(N)N1C (stereo not drawn)
inactive: MDA-N > 100 µM | A498 > 100 µM | SW-620 > 100 µM | M14 > 100 µM | OVCAR-4 > 100 µM | SK-MEL-5 > 100 µM | K562 > 100 µM | NCI-H460 > 100 µM | NCI/ADR-RES > 100 µM | CCRF-CEM > 100 µM | HT-29 > 100 µM | OVCAR-5 > 100 µM | UO-31 > 100 µM | COLO 205 > 100 µM | MDA-MB-231 38.6 µM | TK-10 > 100 µM | CAKI-1 > 100 µM | SF-539 > 100 µM
